{"source": "patent US9833518B2", "about": "“Heteromultivalent particle compositions” (CASE WESTERN RESERVE UNIVERSITY, priority 2012, dated 2017)", "key": {"GPIIb-IIIa (αIIbβ3)": {"target": "GPIIb-IIIa (αIIbβ3) (Homo sapiens, UniProt P05106+P08514)", "sequence (P08514 32-887 limits assumed)": "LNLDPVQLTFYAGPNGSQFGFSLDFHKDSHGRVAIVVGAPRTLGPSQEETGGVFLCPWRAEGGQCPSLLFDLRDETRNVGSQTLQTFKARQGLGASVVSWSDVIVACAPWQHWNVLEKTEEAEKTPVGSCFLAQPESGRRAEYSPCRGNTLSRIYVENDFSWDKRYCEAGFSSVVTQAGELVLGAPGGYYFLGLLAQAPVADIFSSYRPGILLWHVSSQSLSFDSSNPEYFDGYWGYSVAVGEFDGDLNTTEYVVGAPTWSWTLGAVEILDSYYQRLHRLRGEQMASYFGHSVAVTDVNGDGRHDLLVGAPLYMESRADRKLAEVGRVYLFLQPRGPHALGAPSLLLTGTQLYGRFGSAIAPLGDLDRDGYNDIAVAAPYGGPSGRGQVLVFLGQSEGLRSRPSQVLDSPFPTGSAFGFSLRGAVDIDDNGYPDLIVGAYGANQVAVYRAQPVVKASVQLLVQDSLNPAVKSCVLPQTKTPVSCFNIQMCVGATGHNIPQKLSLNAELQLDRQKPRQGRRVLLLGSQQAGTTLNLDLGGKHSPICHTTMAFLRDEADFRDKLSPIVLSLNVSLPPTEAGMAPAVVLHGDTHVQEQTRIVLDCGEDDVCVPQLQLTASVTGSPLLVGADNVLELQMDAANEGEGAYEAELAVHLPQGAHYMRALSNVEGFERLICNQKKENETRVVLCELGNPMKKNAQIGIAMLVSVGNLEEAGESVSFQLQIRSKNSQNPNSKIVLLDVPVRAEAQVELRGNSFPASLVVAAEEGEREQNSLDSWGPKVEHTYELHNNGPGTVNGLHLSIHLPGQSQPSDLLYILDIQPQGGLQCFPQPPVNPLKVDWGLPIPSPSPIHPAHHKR", "sequence (P08514 891-1039 partner limits assumed)": "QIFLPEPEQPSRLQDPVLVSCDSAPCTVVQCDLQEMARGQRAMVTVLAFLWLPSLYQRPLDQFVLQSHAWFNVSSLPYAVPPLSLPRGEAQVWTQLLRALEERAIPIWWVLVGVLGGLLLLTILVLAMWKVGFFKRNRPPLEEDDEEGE", "sequence (P05106 27-788)": "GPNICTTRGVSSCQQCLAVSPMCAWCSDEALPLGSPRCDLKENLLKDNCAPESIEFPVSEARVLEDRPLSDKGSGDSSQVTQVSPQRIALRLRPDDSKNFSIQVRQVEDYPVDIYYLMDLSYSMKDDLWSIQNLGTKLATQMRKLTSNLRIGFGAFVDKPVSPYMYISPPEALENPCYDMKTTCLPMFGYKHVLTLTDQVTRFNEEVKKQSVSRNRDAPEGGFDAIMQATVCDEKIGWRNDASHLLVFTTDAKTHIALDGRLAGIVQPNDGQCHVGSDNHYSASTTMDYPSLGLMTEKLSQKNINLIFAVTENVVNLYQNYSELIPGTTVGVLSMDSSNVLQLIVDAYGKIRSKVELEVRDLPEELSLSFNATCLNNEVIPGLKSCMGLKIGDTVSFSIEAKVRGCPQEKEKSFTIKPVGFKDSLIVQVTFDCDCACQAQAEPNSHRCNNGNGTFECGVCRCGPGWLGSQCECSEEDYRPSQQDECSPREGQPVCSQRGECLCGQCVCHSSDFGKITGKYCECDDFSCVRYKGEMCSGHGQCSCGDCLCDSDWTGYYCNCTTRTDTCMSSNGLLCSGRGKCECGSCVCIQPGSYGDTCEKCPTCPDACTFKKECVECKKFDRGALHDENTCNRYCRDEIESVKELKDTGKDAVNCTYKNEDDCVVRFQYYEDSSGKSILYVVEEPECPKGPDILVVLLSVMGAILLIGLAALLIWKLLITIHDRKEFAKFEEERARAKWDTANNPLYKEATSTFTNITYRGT", "details": "reported in literature; cited from earlier work"}, "[1]": {"test_system": "fibrinogen-mediated platelet aggregation", "experiment": "Aggregometry assay of free peptides in platelet-rich plasma", "type": "cell-based, human", "method": "Affinity of free lRGD and cRGD peptides to bind activated platelets was characterized by ‘half maximal Inhibitory Concentration’ (IC50) value, which, in our assays, was the concentration of peptide required to inhibit fibrinogen-mediated platelet aggregation in platelet-rich plasma (PRP) by 50%, in an aggregometry (Bio/Data, PAP-4) set-up. PRP was prepared from citrated human whole blood by centrifugation at 800 RPM for 15 min at 25° C. 50 μl aliquots of PRP were warmed to 37° C. for 2 minutes, incubated with various concentrations of lRGD and cRGD peptide in the presence of agonist adenosine di-phosphate (ADP, 10 μM) and the maximal aggregation percentage was determined while stifling for 15 min. Consequently, from the maximal aggregation percentage and comparison to aggregation without peptides, inhibition percentage was determined."}}, "data": [{"substance": "cyclo-CNPRGDY(-OEt)RC [cRGD]", "values": [{"measurement": "affinity and selectivity for GPIIb-IIIa compared with αvβ3, αvβ5 and α5β1", "setting": "GPIIb-IIIa (αIIbβ3)", "value": "high affinity and selectivity for GPIIb-IIIa"}, {"measurement": "IC50 by aggregometry, lower compared to lRGD", "setting": "[1]; FIG. 18 legend", "value": "~2 orders of magnitude"}, {"measurement": "IC50 (inhibition of platelet aggregation) relative to lRGD", "setting": "[1]; PRP, ADP 10 μM, 37° C.", "value": "about 1000 times lower"}]}]}
